US20250025484A1, “POLYMERSOME NANOPARTICLES EXHAUSTING INTRACELLUAR AMINO ACID FOR CANCER THERAPY AND METHODS THEREOF” (THE UNIVERSITY OF HONG KONG, priority 2023, published 2025)

Legend:
Assay type in all cases: cell-based, human
[1] = system: K48-polyubiquitinated proteins in A549 cells; assay: Western blot of K48-polyubiquitinated proteins; conditions: EBSS plus BTZ (10 μM), 2 h or 24 h
Description: The cells were plated in 12-well plates at 1×10^5 density and incubated for 24 h. […] Total protein concentration was determined by pierce BCA protein assay kit (Thermo Fischer Scientific, #23225). Equal amounts of proteins were loaded. SDS-PAGE electrophoresis was utilized to separate proteins, which were subsequently transferred to a nitrocellulose membrane through the wet transfer system. The membranes were blocked with 5% BSA in TBST at room temperature for 1 h and incubated with indicated primary antibodies overnight under 4° C. After washed with TBST, the blots were incubated with secondary antibodies for 1 h at room temperature. After washed with TBST three times, the proteins blots were visualized by Clarity Western ECL Substrate (BioRad) and captured by ChemiDoc Imaging System (BioRad). The following antibodies were used: K48-polyubiquitinated proteins (Cell signaling technology, #8081), p-S6K (Cell signaling technology, #9234), S6K (Cell signaling technology, #2708), mTOR (Cell signaling technology, #2983), β-Actin (Cell signaling technology, #4967), SQSTM1 (Abcam, ab91526), HRP-conjugated secondary antibody (Abcam, ab6789), HRP-conjugated secondary antibody (Abcam, ab6721).

[2] = system: proteasome; assay: Proteasome activity probe (Me4BodipyFL-Ahx3Leu3VS) flow cytometry; conditions: A549 cells, EBSS plus BTZ (10 μM), 4 h, vs EBSS
Description: The cells were seeded in 12-well plates at 1×10^5 density. Unless explained, the cells were incubated with FITC-BSA (0.2 mg/mL), DQ-BSA (10 μg/mL), or Me4BodipyFL-Ahx3Leu3VS (1 μM) for 4 h for protein internalization, extracellular protein degradation, and proteasome activity analysis, respectively. TMR-Dextran (0.125 mg/mL) was applied for 1 h as a macropinocytosis marker. After washing with PBS three times, the cells were harvested and analyzed by Agilent NovoCyte Quanteon analyzer.

[3] = system: A549 cells; assay: DQ-BSA internalization and degradation analysis
Description: For in vitro fluorescent imaging detection, the cells were seeded on Nunc glass bottom confocal dishes (Thermo Fischer Scientific, USA) for 24 h. […] TMR-Dextran (0.125 mg/mL) was applied for 1 h as a macropinocytosis marker. Subsequently, after washed with PBS three times, the cells were fixed in 3.7% paraformaldehyde solution in PBS for 10 min, followed by washing with PBS three times and staining with DAPI according to the protocol (Thermo Fischer Scientific, D1306). After washing with PBS three times, the cells were mounted with SlowFade Diamond Antifade Mountant (Thermo Fischer Scientific, S36963). The in vivo TUNEL assay was conducted using the one-step TUNEL assay kit ([…], Beyotime, China). The Zeiss LSM 900 inverted confocal microscope equipped with 10×0.45 NA, 20×0.8 NA and 40×1.4 NA lens was employed to analyze intracellular fluorescent signals. The same exposure settings were used across all conditions in each individual experiment. The cells were seeded in 12-well plates at 1×10^5 density. Unless explained, the cells were incubated with FITC-BSA (0.2 mg/mL), DQ-BSA (10 μg/mL), or Me4BodipyFL-Ahx3Leu3VS (1 μM) for 4 h for protein internalization, extracellular protein degradation, and proteasome activity analysis, respectively. […] After washing with PBS three times, the cells were harvested and analyzed by Agilent NovoCyte Quanteon analyzer.

[4] = system: A549 cells; assay: Cytotoxicity assay (MTT); conditions: BTZ (20 μM), EBSS vs DMEM, 24 h
Description: The cells were seeded in 96-well plates and cultured for 24 h. To investigate the influence of starvation on BTZ treatment, the cells were incubated with BTZ (20 μM) or DMSO, in complete DMEM or EBSS medium for 24 h. To investigate the combination effect of EIPA and BTZ, the cells were treated with a series of concentration of EIPA and BTZ in EBSS (plus 3% BSA) medium for 24 h. 10 μL of MTT (5 mg/mL) were added into each well and incubated for 2-4 h. Then the supernatant was changed with 100 μL DMSO to dissolve the precipitate. Subsequently, the absorbance of the solution at 570 nm and 630 nm was measured by a microplate reader (SpectraMax M4, Molecular Devices LLC, San Jose, CA). The cell viability was calculated by OD570-OD630 and normalized to DMSO control group.

[5] = system: A549 cells; assay: FITC-BSA protein internalization
Description: (§1) For in vitro fluorescent imaging detection, the cells were seeded on Nunc glass bottom confocal dishes (Thermo Fischer Scientific, USA) for 24 h. Unless explained, the cells were incubated with FITC-BSA (0.2 mg/mL), BSA-AF647 (0.05 mg/mL), or DQ-BSA (10 μg/mL) for 4 h for protein internalization and extracellular protein degradation analysis, respectively. TMR-Dextran (0.125 mg/mL) was applied for 1 h as a macropinocytosis marker. Subsequently, after washed with PBS three times, the cells were fixed in 3.7% paraformaldehyde solution in PBS for 10 min, followed by washing with PBS three times and staining with DAPI according to the protocol (Thermo Fischer Scientific, D1306). After washing with PBS three times, the cells were mounted with SlowFade Diamond Antifade Mountant (Thermo Fischer Scientific, S36963). The in vivo TUNEL assay was conducted using the one-step TUNEL assay kit (C1088, Beyotime, China). The Zeiss LSM 900 inverted confocal microscope equipped with 10×0.45 NA, 20×0.8 NA and 40×1.4 NA lens was employed to analyze intracellular fluorescent signals. The same exposure settings were used across all conditions in each individual experiment.
(§2) The cells were seeded in 12-well plates at 1×10^5 density. […] After washing with PBS three times, the cells were harvested and analyzed by Agilent NovoCyte Quanteon analyzer.

[6] = system: A549 cells; assay: mCherry-GFP-LC3 reporter and BSA-AF647 internalization (CLSM); conditions: EBSS plus BTZ, 4 h, vs starved cells
Description: as §1, with “experiment. […]” for “experiment.”

[7] = system: SQSTM1; assay: Western blot of SQSTM1; conditions: A549 cells, EBSS plus BSA medium, 4 h
Description: The cells were plated in 12-well plates at 1×10^5 density and incubated for 24 h. Subsequently, the cells received indicated treatments for 4 h and the cells were washed with 1×PBS three times and harvested with RIPA buffer (supplemented with Halt protease and phosphatase inhibitor cocktail, Thermo Fischer Scientific, USA). Total protein concentration was determined by pierce BCA protein assay kit (Thermo Fischer Scientific, #23225). Equal amounts of proteins were loaded. SDS-PAGE electrophoresis was utilized to separate proteins, which were subsequently transferred to a nitrocellulose membrane through the wet transfer system. The membranes were blocked with 5% BSA in TBST at room temperature for 1 h and incubated with indicated primary antibodies overnight under 4° C. After washed with TBST, the blots were incubated with secondary antibodies for 1 h at room temperature. After washed with TBST three times, the proteins blots were visualized by Clarity Western ECL Substrate (BioRad) and captured by ChemiDoc Imaging System (BioRad). […]

[8] = system: A549 cells; assay: TMR-Dextran internalization (macropinocytosis marker); conditions: EBSS plus EIPA (50 μM, pretreated 1 h before)
Description: as §1, §2

Row | SMILES | level of K48-polyubiquitinated proteins [1] | fluorescence intensity of proteasome probe (proteasome activity) [2] | fluorescence intensity of DQ-BSA (internalized protein degradation) ([3]; A549 cells, EBSS plus BTZ (10 μM), 4 h, vs EBSS) | cell viability [4] | FITC-BSA protein internalization ([5]; EBSS plus BTZ, 4 h) | LC3 puncta (autophagy flux) [6] | percentage of BSA-AF647 colocalized with LC3 puncta [6] | SQSTM1 expression level [7] | fluorescence intensity of DQ-BSA (intracellular protein degradation) ([3]; A549 cells pre-incubated with DQ-BSA 1 h, then EBSS with 3% BSA plus EIPA 3 h, vs starvation group) | TMR-Dextran internalization (macropinocytosis) [8] | starvation-amplified FITC-BSA uptake ([5]; EBSS plus EIPA (50 μM, pretreated 1 h before), 1 h)
1 | CC(C)C[C@H](NC(=O)[C@H](Cc1ccccc1)NC(=O)c1cnccn1)B(O)O [BTZ, bortezomib] | profound accumulation of polyubiquitinated proteins | remarkably reversed | substantially decreased | much more significant decrease of cell viability in starved cancer cells | further increased protein internalization | further enhanced | increased the percentage of BSA-AF647 colocalized with LC3 puncta | exacerbated starvation-induced SQSTM1 decrease | – | – | –
2 | CCN(c1nc(N)c(C(=O)N=C(N)N)nc1Cl)C(C)C [EIPA, 5-(n-ethyl-n-isopropyl)-amiloride] | – | – | – | – | – | – | – | – | further increased the fluorescence intensity of DQ-BSA | inhibited | notably blocked
